Assays:
[1] = test system: R5 strains (Bal, ADA, CSF-6 and BL-6); assay: HIV RT activity in MDM infected with R5 strains; type: cell-based; conditions: 8 days after infection
Experimental: Based upon their differential use of the major HIV co-receptors, HIV isolates have been referred to as R5, X4 or R5X4 strains, respectively (29). The M-tropic (macrophage-tropic) R5 prototype strains (Bal and ADA), dual tropic strain (89.6) and X4 primary isolate (UG024), were obtained from the NIH AIDS Reagent Program. Primary M-tropic isolates (BL-6 and CSF-6) were isolated from the blood and cerebrospinal fluid cells, respectively, of a subject with AIDS. […] The cells were also incubated with SP and/or anti-SP antibody. In this case, SP was incubated with (1:1000 dilution in 10% FCS DMEM) or without anti-SP antibody at room temperature for 10 min and then the mixture was added to the cell cultures for 2 h. When the cells were treated with the combination of CP-96,345 and SP, or CP-96,345, SP and anti-SP antibody, CP-96,345 was incubated with the cell culture for 10 min and then SP was added to the MDM or CP-96,345, SP and anti-SP (1:1000 in 10% FCS DMEM) were incubated for 10 min at room temperature and the mixture was incubated with the MDM for 2 h before infection with HIV. Untreated MDM served as controls. The cells were treated prior to, during, and throughout the infection. […]

CCR5 mRNA = CCR5 mRNA expression in MDM by RT-PCR / real-time RT-PCR; type: cell-based, human; conditions: for relative CCR5 mRNA level (real-time RT-PCR): 4 hours
Experimental: Total RNA was isolated from human peripheral blood MDM (10^6 cells) using Tri-Reagent (Molecular Research Center, Cincinnati, Ohio) as we previously reported (16).
Reverse transcription: Total RNA (1 μg) was reverse transcribed using Reverse Transcription System (Promega, Madison, Wis.) with the specific primers (antisense) for HIV gag (5′-[…]-[…]-3′; SEQ ID NO: 1) (27) or CCR5 (5′-[…]-3′; SEQ ID NO: 2) (32) for 1 h at 42° C. RT reactions was terminated by incubating the reaction mixture at 99° C. for 5 min and then kept at 4° C. The resulting cDNA was used as a template for PCR amplification or real time PCR quantification.
Polymerase chain reaction (PCR) analysis: PCR amplification of CCR5 and HIV gag cDNA was performed with one tenth of the cDNA for 35 cycles (CCR5) (32) or 40 cycles (gag) (27) using AmpliTaq Gold (Perkin ElmerCetus, Foster City, Calif.) in a GeneAmp PCR System 2400 (Perkin Elmer-Cetus). β-Actin was used as a control to monitor the amount and integrity of RNA in each sample (Clontech, Palo Alto, Calif.). Real time PCR was performed with one tenth of cDNA using ABI Prism 7700 Sequence Detection System (Perkin Elmer). The reaction mixture contained 0.25 mM of dNTPs, AmpliTaq Gold (1.5 U), 5 mM of MgCl2, 50 pmole of each of the two primers (SK38: 5′-[…]-3′(SEQ ID NO: 3); SK39: 5′-[…]-3′; SEQ ID NO: 4), 20 pmole of the molecular beacon probe (SK19: 5′[…]-3′; SEQ ID NO: 5) labeled with FAM (a fluorophore) at its 5′ end and DABCYL (a quencher) at the 3′end. The cycle conditions were 95° C. 10 min followed by 40 cycles of 95° C. 15 sec and 60° C. 1 min. The known amounts of HIV DNA isolated from ACH-2 cells were used as standard controls. All standards and samples were run in duplicates. HIV gag, CCR5, β-Actin primer pairs and the probe (SK19) were synthesized by Integrated DNA Technologies, Inc. (Coralville, Ind.).

HIV Bal strain = assay: HIV RT activity in culture supernatants of HIV Bal strain-infected MDM; type: cell-based, HIV-1
Experimental: The cells were also incubated with SP and/or anti-SP antibody. In this case, SP was incubated with (1:1000 dilution in 10% FCS DMEM) or without anti-SP antibody at room temperature for 10 min and then the mixture was added to the cell cultures for 2 h. When the cells were treated with the combination of CP-96,345 and SP, or CP-96,345, SP and anti-SP antibody, CP-96,345 was incubated with the cell culture for 10 min and then SP was added to the MDM or CP-96,345, SP and anti-SP (1:1000 in 10% FCS DMEM) were incubated for 10 min at room temperature and the mixture was incubated with the MDM for 2 h before infection with HIV. Untreated MDM served as controls. The cells were treated prior to, during, and throughout the infection.
HIV Infection: After 2 h incubation with or without the reagents described above, the cells were infected with equal amounts of cell-free HIV based on p24 antigen content (20 ng/10^6 cells) overnight, and then washed to remove unbound virus. Fresh media containing SP and/or CP-96,345 or anti-SP antibody were added to the MDM as described above. The culture media and the reagents were replaced twice weekly. The culture supernatants were harvested for HIV reverse transcriptase (RT) activity determinations. After HIV infection, the MDM were incubated for 8 to 12 days. At the termination of the experiments, cellular RNA was extracted for assessment of HIV gag gene expression using RT-PCR or real time RT-PCR assays.
The HIV RT activity assay was carried out based on the technique of Willey et al. (30) with modification (22).

CCR5 = assay: Flow cytometry of CCR5 receptor expression on MDM; type: cell-based, human
Experimental: The cells were removed from the culture plate and then resuspended in 100 μl of phosphate-buffered saline (PBS). After incubation with 20 μl of either anti-CCR5-FITC or anti-CXCR4-FITC or anti-CD4-FITC or anti-CD14-FITC for 45 min at 4° C., the cells were washed twice with PBS and fixed with 1% paraformaldehyde in PBS. Fluorescein-conjugated control antibodies were isotype-matched IgG. Fluorescence was analyzed on an EPICS-Elite flow cytometer (Beckman-Coulter Electronics, Hialeah, Fla.).

With `COc1ccccc1CN[C@H]1C2CCN(CC2)[C@H]1C(c1ccccc1)c1ccccc1` [CP-96,345, [2S,3S)-cis-2-(diphenylmethyl)-N-[(2-methoxyphenyl)-methyl]-1-azabicyclo [[2.2.2]-octan-3-amine]] the “replication of R5 strains (HIV RT activity)” value ([1]; CP-96,345 10^−7M) was “inhibited”, the “CCR5 mRNA in MDM (RT-PCR)” value (CCR5 mRNA; 10^−8 to 10^−6M, 3 h) was “down-regulated” and the “relative CCR5 mRNA level (real-time RT-PCR)” value (CCR5 mRNA; CP-96,345 10^−7 M to 10^−6 M) was “significantly down-regulated”. The “viral replication as determined by HIV RT activity” value (HIV Bal strain; 10^−7M, 8 days after infection, vs HIV infection control) was “inhibited”, the “effect on SP-enhanced HIV replication in MDM (HIV RT activity and HIV gag mRNA levels)” value (HIV Bal strain; SP 10^−6M, CP-96,345 10^−6M, anti-SP antibody 1:1000 dilution, 12 days after infection) was “abrogated” and the “HIV replication relative to HIV infection control” value (HIV Bal strain; in presence of SP 10^−6M, CP-96,345 10^−6M and/or anti-SP antibody 1:1000, 12 days) was “down-regulated HIV replication to a level that was even lower than that of the HIV infection control”. For the same compound, the “CCR5 receptor expression on MDM (percentage positive cells)” value (CCR5; incubated overnight (24 h), direct immunofluorescence) was “down-regulated”.

With `COc1cc(C(=O)N2CCO[C@](CCN3CCC4(CC3)c3ccccc3C[S@+]4[O-])(c3ccc(Cl)c(Cl)c3)C2)cc(OC)c1OC.Cl` [R-113281] the “replication of R5 strains (HIV RT activity)” value ([1]; R-113281 10^−6 M) was “inhibited”, the “relative CCR5 mRNA level (real-time RT-PCR)” value (CCR5 mRNA; R-113281 10^−8 M to 10^−6 M) was “significantly down-regulated” and the “HIV RT activity” value (HIV Bal strain; MDM treated 2 hours, HIV-1 M-tropic strain Bal, day 8 post-infection) was “significantly reduced”. The “CCR5 protein expression (percentage of CCR5 positive cells, flow cytometry)” value (CCR5; R-113281 10^−6 M, 24 hours) was “inhibited”.
